Measured values from ChEMBL document CHEMBL1130794, “Phthalimidomethyl as a drug pro-moiety. Probing its reactivity” (Bioorg Med Chem Lett, 1998).

Experiment: Second-order rate constant for the alkaline hydrolysis was determined
Type: ADME

| Structure (SMILES) | kHO |
| --- | --- |
| CC1(C)S[C@@H]2[C@H](NC(=O)Cc3ccccc3)C(=O)N2[C@H]1C(=O)OCN1C(=O)c2ccccc2C1=O | 65.6 M⁻¹ s⁻¹ |
| O=C(OCN1C(=O)c2ccc([N+](=O)[O-])cc2C1=O)c1ccccc1 | 559 M⁻¹ s⁻¹ |
| Cc1ccc2c(c1)C(=O)N(COC(=O)c1ccccc1)C2=O | 27.3 M⁻¹ s⁻¹ |
| O=C(OCN1C(=O)c2ccccc2C1=O)c1ccccc1 | 50.4 M⁻¹ s⁻¹ |
| COc1ccc(C(=O)OCN2C(=O)c3ccccc3C2=O)cc1 | 33.9 M⁻¹ s⁻¹ |
| O=C(OCN1C(=O)c2ccccc2C1=O)c1ccc([N+](=O)[O-])cc1 | 76.8 M⁻¹ s⁻¹ |

Now from value to molecule:

| kHO | Structure (SMILES) |
| --- | --- |
| 37.5 M⁻¹ s⁻¹ | CN1C(=O)c2ccccc2C1=O |
| 56.7 M⁻¹ s⁻¹ | O=C(OCN1C(=O)c2ccccc2C1=O)c1ccc(Cl)cc1 |
| 105.8 M⁻¹ s⁻¹ | O=C1c2ccccc2C(=O)N1CCl |
| 79.7 M⁻¹ s⁻¹ | O=C1c2ccccc2C(=O)N1CO[N+](=O)[O-] |
| 35.3 M⁻¹ s⁻¹ | COCN1C(=O)c2ccccc2C1=O |
